Where two headings read alike, the source gives them in different places. *1 amine or outer side, *2 acyl side, *3 side chain or, on linkers, in order; H or OH if unused. Where a SMILES comes first, the peptide text is derived from it. The star is where a group is joined. pNA = O=[N+]([O-])c1ccc(N*)cc1; AMC = Cc1cc(=O)oc2cc(N*)ccc12; Suc = O=C(CCC(=O)[*:2])[*:1]; βNA = c1ccc2cc(N*)ccc2c1; Cbz = O=C(OCc1ccccc1)*
Tests used:
[1] = target: T1, human dipeptidyl peptidase-I (Homo sapiens, UniProt P53634); assay: Effect of protease inhibitors on DPPI activity (purified enzyme); type: biochemical; parameters: Human DPPI is now established to constitute a 200,000 Da glycoprotein with 24,000 Da subunits; from tissue; host or cells: human cadaveric spleen
Method: Note. Purified human dipeptidyl peptidaseI (0.4 μg) was preincubated
with each of the inhibitors at the stated concentration for 15 min at
37° C.. Each sample was diluted 3fold with assay buffer containing
substrate and incubated for an additional 20 min.
Target sequence in this assay (P53634 231-394 limits assumed): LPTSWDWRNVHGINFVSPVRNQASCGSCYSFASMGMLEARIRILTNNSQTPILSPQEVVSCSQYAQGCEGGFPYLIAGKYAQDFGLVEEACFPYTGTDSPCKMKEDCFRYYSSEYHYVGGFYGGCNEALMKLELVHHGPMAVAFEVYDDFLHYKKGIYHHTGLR
Target sequence in this assay (P53634 25-134 limits assumed): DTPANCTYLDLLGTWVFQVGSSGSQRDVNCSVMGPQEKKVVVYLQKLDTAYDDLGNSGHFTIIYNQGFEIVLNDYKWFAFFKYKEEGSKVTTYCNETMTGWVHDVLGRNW
Target sequence in this assay (P53634 395-463 limits assumed): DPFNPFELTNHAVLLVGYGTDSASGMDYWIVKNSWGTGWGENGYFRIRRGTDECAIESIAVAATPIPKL

DPPI = DPPI (Homo sapiens, UniProt P53634); assay: Substrate specificity of human DPPI: hydrolysis of synthetic peptide substrates; type: biochemical; parameters: Human DPPI is now established to constitute a 200,000 Da glycoprotein with 24,000 Da subunits; from tissue; host or cells: human cadaveric spleen; unit not given here
Chain of DPPI (P53634 231-394 limits assumed): as the sequence (P53634 231-394 limits assumed) above
Chain of DPPI (P53634 25-134 limits assumed): as the sequence (P53634 25-134 limits assumed) above
Chain of DPPI (P53634 395-463 limits assumed): as the sequence (P53634 395-463 limits assumed) above
Description: The specificity of human DPPI was studied using a variety of synthetic peptide substrates. These substrates appear in Table 5.
Substrates with blocked amino-termini, with proline at the P1 position, arginine at the P2, or containing only single amino acids, were not hydrolyzed. […] The amino-terminal sequence of bovine α-casein, Arg--Pro, prohibits the processive cleavage of amino-terminal dipeptides from this protein and therefore should increase the ability to specifically detect endoproteolytic activity, if present.

NK cells = assay: Depletion of NK cells by dipeptide esters; type: cell-based
[2] = target: T1, human dipeptidyl peptidase-I
[3] = target: murine granzyme A proenzyme (murine) (UniProt P11032); conditions: scale: Δabsorbance410/hour per cells
[4] = inhibitor 1 mM, preincubated 15 min at 37° C., read-out: Percentage control activity
[5] = inhibitor 1 mM, preincubated 15 min at 37° C.

| Compound | hydrolysis of substrate peptide by human DPPI (DPPI; substrate concentration 100 μM) | hydrolysis of substrate peptide by human DPPI (DPPI; substrate concentration 500 μM) | other results |
| --- | --- | --- | --- |
| c1cnc2c(c1)ccc1cccnc12 [1,10-Phenanthroline] |  |  | remaining activity at 1000 µM [1, 4]: 98% |
| c1ccc(SSc2ccccn2)nc1 [2,2'-Dithiodipyridine] |  |  | remaining activity at 400 µM ([1]; inhibitor 400 μM, preincubated 15 min at 37° C., read-out: Percentage control activity): 9%; effect on DPPI activity (in words) ([1]; screening conditions pH 5.5): inhibited |
| CC(N)C(=O)NC(C)C(=O)NC(C(=O)NC(C)C(=O)Nc1ccc([N+](=O)[O-])cc1)C(C)C (stereo not drawn) [Ala-Ala-Val-Ala-pNA] (H-AAVA-pNA; configuration not given here) | 120 | 120 |  |
| C[C@H](N)C(=O)N[C@@H](C)C(=O)Nc1ccc([N+](=O)[O-])cc1 [Ala-Ala-pNA] (H-Ala-Ala-pNA) | 380 | 1000 |  |
| C[C@H](N)C(=O)Nc1ccc2ccccc2c1 [Ala-βNA] | 0 | 0 |  |
| N=C(N)NCCC[C@H](NC(=O)[C@@H](N)CCCNC(=N)N)C(=O)Nc1ccc2ccccc2c1 [Arg-Arg-βNA] (H-Arg-Arg-βNA) | 0 | 0 |  |
| NC(N)=NCCC[C@H](N)C(=O)Nc1ccc2ccccc2c1 [Arg-βNA] | 0 | 0 |  |
| C[C@H](NC(=O)[C@@H](N)CC(=O)O)C(=O)Nc1ccc2ccccc2c1 [Asp-Ala-βNA] (H-Asp-Ala-βNA) | 250 | 1000 |  |
| CC(C)C[C@H](NC(=O)[C@@H](O)[C@H](N)Cc1ccccc1)C(=O)O [Bestatin] |  |  | remaining activity at 500 µg/mL ([1]; inhibitor 500 μg/ml, preincubated 15 min at 37° C., read-out: Percentage control activity): 103%; effect on DPPI activity (in words) ([1]; screening conditions pH 5.5): no effect |
| NC(N)=NCCC[C@H](NC(=O)OCc1ccccc1)C(=O)N[C@@H](CCCN=C(N)N)C(=O)Nc1ccc2ccccc2c1 [CBZ-Arg-Arg-βNA] (Cbz-Arg-Arg-βNA) | 0 | 0 |  |
| N=C(N)NCCCC(NC(=O)OCc1ccccc1)C(=O)Nc1ccc2ccccc2c1 (stereo not drawn) [CBZ-Arg-βNA] | 0 | 0 |  |
| Cc1cc(=O)oc2cc(NC(=O)[C@H](CCCN=C(N)N)NC(=O)[C@@H]3CCCN3C(=O)CNC(=O)OCc3ccccc3)ccc12 [CBZ-Gly-Pro-Arg-AMC] (Cbz-Gly-Pro-Arg-{AMC}) | 0 | 0 |  |
| Cc1cc(=O)oc2cc(NC(=O)C(CCCCN)NC(=O)OCc3ccccc3)ccc12 (stereo not drawn) [CBZ-Lys-AMC] | 0 | 0 |  |
| O=C(NC(Cc1ccccc1)C(=O)Nc1ccc2ccccc2c1)OCc1ccccc1 (stereo not drawn) [CBZ-Phe-βNA] | 0 | 0 |  |
| COc1cc(NC(=O)[C@H](CCCN=C(N)N)NC(=O)[C@H](CC(C)C)NC(=O)[C@@H](NC(=O)OCc2ccccc2)C(C)C)cc2ccccc12 [CBZ-Val-Leu-Arg-MNA] | 0 | 0 |  |
| COc1cc(NC(=O)C(CCCN=C(N)N)NC(=O)CN)cc2ccccc12 (stereo not drawn) [Gly-Arg-MNA] | 2500 | 4750 |  |
| Cc1cc(=O)oc2cc(NC(=O)[C@H](Cc3ccccc3)NC(=O)CN)ccc12 [Gly-Phe-AMC] (H-Gly-Phe-{AMC}) | 3500 | 6120 |  |
| COc1cc(NC(=O)C(Cc2ccccc2)NC(=O)CN)cc2ccccc12 (stereo not drawn) [Gly-Phe-MNA] | 3500 | 5750 |  |
| NCC(=O)N[C@@H](Cc1ccccc1)C(=O)Nc1ccc([N+](=O)[O-])cc1 [Gly-Phe-pNA] (H-Gly-Phe-pNA) | 120 | 380 |  |
| NCC(=O)N[C@@H](Cc1ccccc1)C(=O)Nc1ccc2ccccc2c1 [Gly-Phe-βNA] (H-Gly-Phe-βNA) | 2380 | 4380 |  |

| Compound | hydrolysis of substrate peptide by human DPPI (DPPI; substrate concentration 100 μM) | hydrolysis of substrate peptide by human DPPI (DPPI; substrate concentration 500 μM) | other results |
| --- | --- | --- | --- |
| COc1cc(NC(=O)[C@@H]2CCCN2C(=O)CN)cc2ccccc12 [Gly-Pro-MNA] | 0 | 0 |  |
| NCC(=O)N1CCC[C@H]1C(=O)Nc1ccc2ccccc2c1 [Gly-Pro-βNA] (H-Gly-Pro-βNA) | 0 | 0 |  |
| NCC(=O)Nc1ccc2ccccc2c1 [Gly-βNA] | 0 | 0 |  |
| O=C(O)CI [Iodoacetic acid] |  |  | effect on DPPI activity (in words) ([1]; pH 5.5): potently inhibited; remaining activity at 1000 µM ([1]; read-out: Percentage control activity): 10% |
| CC(C)C[C@H](N)C(=O)Nc1ccc2ccccc2c1 [Leu-βNA] | 0 | 0 |  |
| COC([CH2][Hg+])CNC(=O)c1ccccc1OCC(=O)O.[OH-] (stereo not drawn) [Mersalyl acid] |  |  | Percentage control activity [1, 5]: 3%; effect on DPPI activity (in words) ([1]; screening conditions pH 5.5): potently inhibited |
| CCN1C(=O)C=CC1=O [N-Ethylmaleimide] |  |  | remaining activity at 1000 µM [1, 4]: 63%; effect on DPPI activity (in words) ([1]; screening conditions pH 5.5): inhibited |
| N[C@@H](Cc1ccccc1)C(=O)Nc1ccc2ccccc2c1 [Phe-βNA] | 0 | 0 |  |
| Cc1cc(=O)oc2cc(NC(=O)[C@H](CCCN=C(N)N)NC(=O)[C@H](Cc3ccccc3)NC(=O)[C@@H]3CCCN3)ccc12 [Pro-Phe-Arg-AMC] (H-Pro-Phe-Arg-{AMC}) | 0 | 0 |  |
| O=C(Nc1ccc2ccccc2c1)[C@@H]1CCCN1 [Pro-βNA] | 0 | 0 |  |
| COc1cc(NC(=O)C(Cc2ccc(O)cc2)NC(=O)C(N)CO)cc2ccccc12 (stereo not drawn) [Ser-Tyr-MNA] | 1000 | 1750 |  |
| N[C@@H](CO)C(=O)N[C@@H](Cc1ccc(O)cc1)C(=O)Nc1ccc2ccccc2c1 [Ser-Tyr-βNA] (H-Ser-Tyr-βNA) | 1750 | 2000 |  |
| C[C@H](NC(=O)CCC(=O)O)C(=O)N[C@@H](C)C(=O)N[C@@H](C)C(=O)Nc1ccc([N+](=O)[O-])cc1 [Suc-Ala-Ala-Ala-pNA] | 0 | 0 |  |
| C[C@H](NC(=O)CCC(=O)O)C(=O)N[C@@H](C)C(=O)N1CCC[C@H]1C(=O)N[C@@H](Cc1ccccc1)C(=O)Nc1ccc([N+](=O)[O-])cc1 [Suc-Ala-Ala-Pro-Phe-pNA] (Suc-AAPF-pNA) | 0 | 0 |  |
| Cc1ccc(S(=O)(=O)NC(CCCCN)C(=O)CCl)cc1 (stereo not drawn) [TLCK, 1-chloro-3-tosylamido-7-amino-2-heptanone] |  |  | Percentage control activity [1, 5]: 5%; effect on DPPI activity (in words) ([1]; screening conditions pH 5.5): potently inhibited |
| CC(C)C[C@H](NC(=O)[C@@H](N)CC(C)C)C(=O)OCc1ccccc1 [benzyl ester derivative of Leu--Leu--OMe] |  |  | more potent than Leu--Leu--OMe in mediating depletion of NK cells (NK cells): 5 fold |
| CCCC[C@H](NC(=O)[C@@H](N)CCCC)C(=O)OC [norleucyl-norleucine methyl ester] |  |  | more active than Leu--Leu--OMe (NK cells): 2 fold |
| Cystatin [listing 1 of 2 here] |  |  | Percentage control activity ([1]; inhibitor 50 μg/ml, preincubated 15 min at 37° C.): 32%; effect on DPPI activity (in words) ([1]; screening conditions pH 5.5): potently inhibited |
| Cystatin [listing 2 of 2 here] |  |  | Percentage control activity of purified human DPPI (% of control activity (at 50 µg/ml)) [2]: 32 |
| murine dipeptidyl peptidase-I (from UniProt P97821) (enzyme) |  |  | generation of BLT esterase activity in murine alloreactive CD8(+) T cells with DPPI inhibited [3]: 3.3 |
